Source: US10872410B2, “Methods and apparatus for assessing immune system activity and therapeutic efficacy” (Animantis, LLC, priority 2016, dated 2020)

Test system: cell population sets
Assay: Directional displacement of cell population sets measured with the immune platform (FIG. 7)
Type: cell-based
Details: conditions unstimulated, LPS, TNF, effect of presence of the stimulus
Excerpt: FIG. 7 is a graphical representation of the directional displacement of cell population sets as measured using an embodiment of the immune platform described herein. […]

| Substance | directional displacement of cell population sets |
| --- | --- |
| tumor necrosis factor [TNF] | minimally affected |
| lipopolysaccharide [LPS] | greatly affected |
